Test results taken from US20040142958A1, “Combination therapy for the treatment of pain” (Neurogen Corporation, priority 2002, published 2004).

Experiments:
rats [1] = test: CFA-induced chronic inflammatory pain, mechanical allodynia (von Frey), tolerance to morphine; type: in vivo, rat; conditions: once per day for four days; for withdrawal threshold from a von Frey filament: Treatment Day 4, 1 hour after treatment, ANOVA and Fisher's PLSD
Text: A positive allodynic response consists of lifting the affected paw followed immediately by licking or shaking of the paw.

rats [2] = test: Carrageenan-induced thermal hyperalgesia, VR1 antagonist and morphine in combination; type: in vivo, rat
Method: Briefly, a constant radiant heat source is applied the animals' plantar surface of either hind paw. The time to withdrawal (ie., the amount of time that heat is applied before the animal moves its paw), otherwise described as thermal threshold or latency, determines the animal's hind paw sensitivity to heat.
Rats received oral administration of 0.1 mg/kg VR1 antagonist ([2-(2,6-dimethyl-morpholin-4-ylmethyl)-7-(3-trifluoromethyl-pyridin-2-yl)-pyrido[3,2-d]pyrimidin-4-yl]-(4-trifluoromethyl-phenyl)-amine (cis)) or vehicle alone in a solution of 2% vitamin E (d-alpha tocopheryl polyethylene glycol 1000 succinate) in distilled water. One hour later, 100 μL of 1% carrageenan was injected in the intraplantar aspect of the left paw. 2 hours after carrageenan injection, the rats were treated subcutaneously with saline or 1 mg/kg of morphine sulfate in saline. One hour after subcutaneous treatment, each rat's thermal withdrawal latency (i.e., the amount of time that heat is applied before the animal moves its paw) was determined. This latency was compared with the latency determined for each rat on the day prior to the experiment (baseline day).
The data are presented in FIG. 4, expressed as a decrease in paw withdrawal latency (latency on test day—latency on baseline day).

[3] = oral VR1 antagonist 0.3 mg/kg and subcutaneous morphine sulfate 3 mg/kg

SMILES	tolerance to repeated morphine dosing (rats [1]; [3])	withdrawal threshold from a von Frey filament (rats [1]; [3])	decrease in thermal paw withdrawal latency (carrageenan-induced thermal hyperalgesia) (rats [2]; VR1 antagonist alone, 0.1 mg/kg oral, with s.c. saline, ANOVA, Fisher's PLSD)	decrease in thermal paw withdrawal latency (carrageenan-induced thermal hyperalgesia) (rats [2]; coadministration of 1 mg/kg morphine s.c. with VR1 antagonist 0.1 mg/kg oral)	withdrawal threshold from a von Frey filament (rats [1]; oral vehicle and subcutaneous morphine sulfate 3 mg/kg)	decrease in thermal paw withdrawal latency (carrageenan-induced thermal hyperalgesia) (rats [2]; 1 mg/kg morphine s.c. with oral vehicle, 1 hour after subcutaneous treatment, ANOVA, Fisher's PLSD)
C[C@@H]1CN(Cc2nc(Nc3ccc(C(F)(F)F)cc3)c3ncc(-c4ncccc4C(F)(F)F)cc3n2)C[C@H](C)O1 [VR1 antagonist, [2-(2,6-dimethyl-morpholin-4-ylmethyl)-7-(3-trifluoromethyl-pyridin-2-yl)-pyrido[3,2-d]pyrimidin-4-yl]-(4-trifluoromethyl-phenyl)-amine (cis)]	prevents tolerance to repeated morphine dosing	statistically significantly higher withdrawal thresholds than any other treatment group	statistically significant effect	greatest effect	–	–
CN1CC[C@]23c4c5ccc(O)c4O[C@H]2[C@@H](O)C=C[C@H]3[C@H]1C5 [morphine, reference compound]	–	–	–	–	not significantly different from oral vehicle and subcutaneous vehicle controls	ineffective in reversing carrageenan-induced thermal hyperalgesia
